Values of other authors as cited in patent publication EP0712633A1, “Pharmaceutical compositions for topical application” (Blank, Izhak, priority 1994, dated 1996).

Conditions: 6-carboxylfluorescein

| Compound | increase of plasma levels of the dye compared with a control (0.1% w/v in conjunction with sodium dodecyl sulfate 0.05% w/v) | increase of penetration compared to the control (pretreatment of the skin with 4%) |
| --- | --- | --- |
| OCCS [2-mercaptoethanol] | 40 times | – |
| O=C(O)CS [calcium thioglycolate] | – | 9 times |
